Data reported in ChEMBL document CHEMBL1201862, “PubChem BioAssay data set” (2004).
Active and inactive are the calls of the source.

Assays:
Assay type in all cases: functional
[1] = target: T1, High affinity choline transporter 1 (Homo sapiens, UniProt Q9GZV3); experiment: CHT inhibitors, dose response, cell-based, 10-point CRC, membrane potential dye (AID 588401);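 also: membrane potential dye fluorescence of choline-evoked depolarization via CHT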
T1 sequence (Q9GZV3 whole entry): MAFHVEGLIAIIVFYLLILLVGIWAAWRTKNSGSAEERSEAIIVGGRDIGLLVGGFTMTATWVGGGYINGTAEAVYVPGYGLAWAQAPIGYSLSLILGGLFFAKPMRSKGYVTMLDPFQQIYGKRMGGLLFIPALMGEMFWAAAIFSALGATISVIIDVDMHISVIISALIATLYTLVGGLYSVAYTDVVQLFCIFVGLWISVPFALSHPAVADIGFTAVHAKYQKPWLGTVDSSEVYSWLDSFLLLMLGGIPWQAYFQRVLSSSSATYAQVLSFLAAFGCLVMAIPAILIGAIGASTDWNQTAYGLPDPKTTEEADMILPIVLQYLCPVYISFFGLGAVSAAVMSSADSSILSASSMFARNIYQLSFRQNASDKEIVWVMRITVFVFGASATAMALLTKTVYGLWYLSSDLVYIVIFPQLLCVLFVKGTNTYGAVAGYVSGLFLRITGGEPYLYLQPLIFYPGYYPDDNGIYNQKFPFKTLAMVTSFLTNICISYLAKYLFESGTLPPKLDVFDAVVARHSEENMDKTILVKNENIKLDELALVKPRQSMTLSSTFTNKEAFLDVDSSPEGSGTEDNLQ

[2] = target: T1, High affinity choline transporter 1; experiment: CHT inhibitors, dose response, cell-based, 5-point CRC, membrane potential dye (AID 504840)
[3] = target: T2, Multidrug resistance protein CDR1 (Candida albicans, UniProt P43071); experiment: CaCdr1 efflux pump inhibitor potency, dose response, singleplex, Cherry Pick2 set (AID 623996); conditions: read-out: EC50_MICROM
[4] = target: T3, Multidrug resistance protein CDR2 (Candida albicans (strain SC5314 / ATCC MYA-2876) (Yeast), UniProt P78595); experiment: CaCDR2 efflux pump inhibitors in yeast, dose response, S. cerevisiae AD1-8u, singleplex, Cherry Pick1 hits (AID 588604)
T3 sequence (P78595 whole entry): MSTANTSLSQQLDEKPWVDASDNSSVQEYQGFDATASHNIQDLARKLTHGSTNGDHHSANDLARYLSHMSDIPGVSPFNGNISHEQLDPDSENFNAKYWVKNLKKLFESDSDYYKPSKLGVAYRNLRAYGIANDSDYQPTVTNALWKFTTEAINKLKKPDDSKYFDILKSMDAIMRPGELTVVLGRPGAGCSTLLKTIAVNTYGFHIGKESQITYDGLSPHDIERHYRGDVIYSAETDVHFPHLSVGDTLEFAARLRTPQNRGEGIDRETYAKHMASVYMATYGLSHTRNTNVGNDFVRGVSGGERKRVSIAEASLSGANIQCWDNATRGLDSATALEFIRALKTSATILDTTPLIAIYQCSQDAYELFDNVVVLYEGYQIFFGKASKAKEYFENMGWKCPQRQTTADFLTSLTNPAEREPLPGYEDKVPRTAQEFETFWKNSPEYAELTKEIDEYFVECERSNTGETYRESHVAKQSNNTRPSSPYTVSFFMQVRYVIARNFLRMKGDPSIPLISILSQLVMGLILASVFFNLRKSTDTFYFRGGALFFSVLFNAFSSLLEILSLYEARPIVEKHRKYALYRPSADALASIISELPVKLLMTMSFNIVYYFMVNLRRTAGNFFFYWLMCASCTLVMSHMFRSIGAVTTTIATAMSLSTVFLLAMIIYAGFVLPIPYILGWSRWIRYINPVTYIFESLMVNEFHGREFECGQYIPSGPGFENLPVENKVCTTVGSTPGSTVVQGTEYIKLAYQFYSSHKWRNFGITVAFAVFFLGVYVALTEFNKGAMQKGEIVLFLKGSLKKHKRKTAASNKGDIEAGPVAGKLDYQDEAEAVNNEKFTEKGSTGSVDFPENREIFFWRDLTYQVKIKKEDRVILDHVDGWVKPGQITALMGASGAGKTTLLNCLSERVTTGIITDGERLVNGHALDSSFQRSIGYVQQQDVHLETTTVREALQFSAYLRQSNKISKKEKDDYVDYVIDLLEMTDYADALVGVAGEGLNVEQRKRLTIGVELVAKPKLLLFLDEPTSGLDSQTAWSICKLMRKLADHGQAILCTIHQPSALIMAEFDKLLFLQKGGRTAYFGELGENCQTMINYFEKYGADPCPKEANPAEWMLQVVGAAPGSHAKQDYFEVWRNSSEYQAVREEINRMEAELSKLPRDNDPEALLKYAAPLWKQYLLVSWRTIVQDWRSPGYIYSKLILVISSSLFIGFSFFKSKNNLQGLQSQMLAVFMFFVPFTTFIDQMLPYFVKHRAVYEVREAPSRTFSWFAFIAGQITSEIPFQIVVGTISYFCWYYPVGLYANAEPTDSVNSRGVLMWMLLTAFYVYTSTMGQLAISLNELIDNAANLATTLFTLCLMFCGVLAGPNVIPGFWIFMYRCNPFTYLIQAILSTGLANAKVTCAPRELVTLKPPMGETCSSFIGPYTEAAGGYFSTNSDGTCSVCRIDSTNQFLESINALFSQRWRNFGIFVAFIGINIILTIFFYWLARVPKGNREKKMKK

[5] = target: T2, Multidrug resistance protein CDR1; experiment: CaCDR1 efflux pump inhibitors in yeast, dose response, S. cerevisiae AD1-8u, singleplex, Cherry Pick1 hits (AID 588606)
[6] = target: Benomyl/methotrexate resistance protein (Candida albicans, UniProt P28873); experiment: CaMdr1 efflux pump inhibitor potency, dose response, singleplex, Cherry Pick1 hits (AID 588608)
[7] = target: T3, Multidrug resistance protein CDR2; experiment: CaCDR2 efflux pump inhibitors in yeast, dose response, S. cerevisiae AD1-8u, singleplex, Cherry Pick2 set (AID 623994); conditions: read-out: EC50_MICROM

T2 sequence (P43071 whole entry, looked up): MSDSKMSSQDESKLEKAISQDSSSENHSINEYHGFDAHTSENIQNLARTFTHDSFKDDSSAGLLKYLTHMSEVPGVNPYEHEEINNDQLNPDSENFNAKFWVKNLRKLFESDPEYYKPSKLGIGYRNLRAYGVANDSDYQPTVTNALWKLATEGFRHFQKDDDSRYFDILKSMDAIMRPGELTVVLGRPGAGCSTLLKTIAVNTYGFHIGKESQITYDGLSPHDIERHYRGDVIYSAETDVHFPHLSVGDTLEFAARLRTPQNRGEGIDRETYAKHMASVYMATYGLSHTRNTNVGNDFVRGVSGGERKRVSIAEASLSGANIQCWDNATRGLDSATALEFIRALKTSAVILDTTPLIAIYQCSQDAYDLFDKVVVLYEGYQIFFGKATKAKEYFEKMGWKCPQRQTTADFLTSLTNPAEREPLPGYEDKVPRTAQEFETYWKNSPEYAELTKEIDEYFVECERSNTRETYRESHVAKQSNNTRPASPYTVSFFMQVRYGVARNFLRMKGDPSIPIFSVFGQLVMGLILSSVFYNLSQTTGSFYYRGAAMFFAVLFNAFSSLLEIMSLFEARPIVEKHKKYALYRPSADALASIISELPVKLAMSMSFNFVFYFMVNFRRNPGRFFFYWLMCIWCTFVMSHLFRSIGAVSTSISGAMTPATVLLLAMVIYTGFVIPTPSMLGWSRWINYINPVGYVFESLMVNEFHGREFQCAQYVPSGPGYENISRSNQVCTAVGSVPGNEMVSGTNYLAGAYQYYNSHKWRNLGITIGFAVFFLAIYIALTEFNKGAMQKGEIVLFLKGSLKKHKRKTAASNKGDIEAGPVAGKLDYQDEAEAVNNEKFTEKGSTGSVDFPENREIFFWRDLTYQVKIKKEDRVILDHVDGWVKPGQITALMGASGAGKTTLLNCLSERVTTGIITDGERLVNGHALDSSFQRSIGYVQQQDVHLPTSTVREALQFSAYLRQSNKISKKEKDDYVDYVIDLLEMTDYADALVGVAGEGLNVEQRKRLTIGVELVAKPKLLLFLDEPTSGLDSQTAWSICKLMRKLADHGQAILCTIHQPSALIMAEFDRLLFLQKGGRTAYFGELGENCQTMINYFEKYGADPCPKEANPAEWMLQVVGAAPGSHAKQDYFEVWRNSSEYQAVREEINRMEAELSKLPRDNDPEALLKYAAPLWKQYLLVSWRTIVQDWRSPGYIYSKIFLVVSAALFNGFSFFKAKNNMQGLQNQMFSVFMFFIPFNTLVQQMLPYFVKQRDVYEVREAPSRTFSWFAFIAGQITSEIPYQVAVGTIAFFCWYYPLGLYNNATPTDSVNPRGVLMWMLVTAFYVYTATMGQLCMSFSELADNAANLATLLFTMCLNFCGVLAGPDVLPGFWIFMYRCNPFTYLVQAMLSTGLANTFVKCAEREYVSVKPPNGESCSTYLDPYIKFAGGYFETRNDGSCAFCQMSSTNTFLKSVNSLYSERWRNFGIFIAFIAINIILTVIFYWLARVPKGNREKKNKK
Benomyl/methotrexate resistance protein, sequence (P28873 whole entry): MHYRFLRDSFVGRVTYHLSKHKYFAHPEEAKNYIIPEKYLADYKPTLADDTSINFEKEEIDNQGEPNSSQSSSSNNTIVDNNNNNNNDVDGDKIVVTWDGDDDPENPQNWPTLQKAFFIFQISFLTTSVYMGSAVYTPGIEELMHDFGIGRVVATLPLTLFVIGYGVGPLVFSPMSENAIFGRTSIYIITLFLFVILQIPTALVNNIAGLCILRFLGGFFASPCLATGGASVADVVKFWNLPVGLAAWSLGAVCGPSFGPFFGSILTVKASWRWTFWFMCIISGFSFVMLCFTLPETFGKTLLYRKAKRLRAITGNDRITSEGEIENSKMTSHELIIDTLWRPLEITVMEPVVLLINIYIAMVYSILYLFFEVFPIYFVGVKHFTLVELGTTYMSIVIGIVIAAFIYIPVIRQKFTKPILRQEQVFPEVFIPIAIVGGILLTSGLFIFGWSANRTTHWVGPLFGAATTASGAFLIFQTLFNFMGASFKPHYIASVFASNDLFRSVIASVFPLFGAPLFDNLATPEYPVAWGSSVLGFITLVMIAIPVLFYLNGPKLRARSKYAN

IC50 [1] | IC50 [2] | Structure (SMILES) | EC50 [3] | EC50 [4] | EC50 [5] | EC50 [6] | EC50 [7]
0.501 µM (active) | 1.45 µM (active) | CCOCCCNS(=O)(=O)c1ccc(NC(=O)c2ccc([N+](=O)[O-])cc2Cl)cc1 |  |  |  |  | 
 |  | COc1ccc2sc(-c3ccccc3OC)c(-c3ccc(OCCN(C)C)cc3)c2c1 | 20.1 µM (active) | 10.2 µM (active) | 13.3 µM (active) | 10.5 µM (active) | 5.43 µM (active)
